Experimental data: patent publication US20260273025A1, “TREATMENT AND PREVENTION OF OSTEOPOROSIS IN HIGH BODY MASS INDEX INDIVIDUALS” (Radius Health, Inc., priority 2021, published 2026)
Entries after “also recorded” stand apart in the source; their conditions may differ.

Legend:
[1] = test system: postmenopausal osteoporotic women; test: ACTIVE Phase 3 trial, post hoc high BMI subgroup: new vertebral fractures; type: in vivo, human; details: overweight population, 18 months; for relative risk reduction of new vertebral fractures versus placebo: abaloparatide 80 μg or teriparatide 20 μg daily subcutaneous
Method: (§1) The ACTIVE pivotal Phase 3 fracture prevention trial for the PTHrP analogue abaloparatide, Study BA058-05-003 (see ClinicalTrials.gov), was a randomized, double-blind, placebo-controlled trial in postmenopausal osteoporotic women randomized to receive daily doses of one of the following for 18 months: 80 micrograms (μg) of abaloparatide; a matching placebo; or the approved daily dose of 20 μg of teriparatide. Treatment with abaloparatide at a daily dose of 80 μg or placebo remained blinded to all parties throughout the study. Teriparatide used was a proprietary prefilled drug and device combination that could not be repackaged. Therefore, its identity could not be blinded to treating physicians and patients once use began. Study medication was self-administered daily by subcutaneous injection for a maximum of 18 months. All enrolled patients also received calcium and vitamin D supplementation from the time of enrollment until the end of the treatment period. It was recommended to patients that they also continue these supplements through the one-month follow-up period.
(§2) The trial completed enrollment in March 2013 with 2,463 patients at 28 medical centers in 10 countries in the United States, Europe, Latin America, and Asia. In a post hoc analysis, a subgroup of overweight patients, patients with high BMI (≥27 kg/m^2, ≥24 kg/m^2 for Asian patients) was evaluated. The baseline characteristics of this sub-group of patients are detailed in Table 1 below.
(§3) The study enrolled otherwise healthy ambulatory women aged 49 to 86 (inclusive) who had been postmenopausal for at least five years, met the study entry criteria, and had provided written informed consent. […] All patients were to be in good general health as determined by medical history, physical examination (including vital signs), and clinical laboratory testing. This study population contained a patient population reflective of the type of severe osteoporosis patients that specialists would be expected to treat in their practices.
The study endpoints included BMD, new vertebral fractures, nonvertebral fractures (fractures excluding those of the spine, sternum, patella, digits, skull, and face and those with high trauma), any clinical fractures (all fractures causing a patient to seek medical care), and major osteoporotic fractures (fractures of the upper arm, wrist, hip, or clinical spine). […] Time to first incident nonvertebral, clinical, major osteoporotic, and wrist fracture assessed using Kaplan-Meier (KM) method; log-rank test (intent-to-treat [ITT] population). Change from baseline BMD evaluated for total hip, femoral neck, and lumbar spine (missing data points imputed by last observation carried forward; ITT population).

[2] = test system: postmenopausal osteoporotic women; test: ACTIVE Phase 3 trial, post hoc high BMI subgroup: nonvertebral, clinical, major osteoporotic and wrist fractures (Kaplan-Meier); type: in vivo, human
Method: as §1, §2, §3
(§4) The study endpoints included BMD, new vertebral fractures, nonvertebral fractures (fractures excluding those of the spine, sternum, patella, digits, skull, and face and those with high trauma), any clinical fractures (all fractures causing a patient to seek medical care), and major osteoporotic fractures (fractures of the upper arm, wrist, hip, or clinical spine). New vertebral fracture compared using Fisher exact test (modified intent-to-treat [mITT] population; participants with pretreatment/postbaseline spine x-rays). Time to first incident nonvertebral, clinical, major osteoporotic, and wrist fracture assessed using Kaplan-Meier (KM) method; log-rank test (intent-to-treat [ITT] population). Change from baseline BMD evaluated for total hip, femoral neck, and lumbar spine (missing data points imputed by last observation carried forward; ITT population).

[3] = test system: postmenopausal osteoporotic women; test: ACTIVE Phase 3 trial, post hoc high BMI subgroup: BMD percent change from baseline; type: in vivo, human; details: for BMD increase as compared to placebo: total hip, femoral neck, lumbar spine
Method: as §1, §2, §3, §4

[4] = test system: postmenopausal osteoporotic women; test: ACTIVE Phase 3 trial, post hoc high BMI subgroup: safety, treatment-emergent adverse events; type: in vivo, human; details: for Creatine renal clearance increased, (%): human
Method: as §1, §2
Safety evaluations performed in the ACTIVE trial included physical examinations, vital signs, 12-lead electrocardiograms, or ECGs, clinical laboratory tests and monitoring, and recording of adverse events. Specific safety assessments included pre-dose and post-dose (four hours) determination of serum calcium, determination of creatinine clearance, post-dose ECG assessments at selected visits, and assessments of postural hypotension (60 minutes post-dose) at selected clinic visits.
The ACTIVE trial also evaluated several potential safety measures. The treatment-emergent adverse events (TEAEs) reported by the overweight patients are summarized below in Table 2 for groups treated with placebo, abaloparatide, and teriparatide, respectively.

[5] = test system: subjects treated with abaloparatide; test: Bone turnover markers PINP and CTX in treated subjects; type: in vivo, human
[6] = test system: subjects treated with abaloparatide; test: Trabecular bone score (TBS) in treated subjects; type: in vivo, human
Text: TBS is also a predictor of fragility fractures of the spine and hip in postmenopausal overweight women independent of BMD and other major clinical risk factors. As such, it captures additional patients at risk of fracture that are missed by BMD alone, and together with BMD more accurately captures bone strength.

[7] = test system: subjects treated with abaloparatide; test: Abaloparatide for 18 months followed by anti-resorptive therapy: fracture risk; type: in vivo, human; details: abaloparatide 18 months followed by anti-resorptive therapy (e.g., alendronate for 6 months)
[8] = test system: ovariectomy-induced osteopenic rats; details: cited from earlier work
[9] = test system: ovariectomy-induced osteopenic monkeys; details: cited from earlier work
[10] = overweight population, 18 months
[11] = overweight patients, 6, 12 and 18 months
[12] = overweight patients, abaloparatide n = 262, teriparatide n = 281

## CC[C@H](C)[C@H](NC(=O)[C@H](CCC(=O)O)NC(=O)[C@H](CO)NC(=O)[C@@H](NC(=O)[C@@H](N)CO)C(C)C)C(=O)N[C@@H](CCC(N)=O)C(=O)N[C@@H](CC(C)C)C(=O)N[C@@H](CCSC)C(=O)N[C@@H](Cc1cnc[nH]1)C(=O)N[C@@H](CC(N)=O)C(=O)N[C@@H](CC(C)C)C(=O)NCC(=O)N[C@@H](CCCCN)C(=O)N[C@@H](Cc1cnc[nH]1)C(=O)N[C@@H](CC(C)C)C(=O)N[C@@H](CC(N)=O)C(=O)N[C@@H](CO)C(=O)N[C@@H](CCSC)C(=O)N[C@@H](CCC(=O)O)C(=O)N[C@@H](CCCN=C(N)N)C(=O)N[C@H](C(=O)N[C@@H](CCC(=O)O)C(=O)N[C@@H](Cc1c[nH]c2ccccc12)C(=O)N[C@@H](CC(C)C)C(=O)N[C@@H](CCCN=C(N)N)C(=O)N[C@@H](CCCCN)C(=O)N[C@@H](CCCCN)C(=O)N[C@@H](CC(C)C)C(=O)N[C@@H](CCC(N)=O)C(=O)N[C@@H](CC(=O)O)C(=O)N[C@H](C(=O)N[C@@H](Cc1cnc[nH]1)C(=O)N[C@@H](CC(N)=O)C(=O)N[C@@H](Cc1ccccc1)C(=O)O)C(C)C)C(C)C [Teriparatide, teriparatide]
[1]
  new vertebral fractures, reduction vs. placebo: significant reduction
  relative risk reduction of new vertebral fractures versus placebo: 74%
[2]; [10]
  major osteoporotic fractures (MOF), reduction versus placebo (Kaplan-Meier estimated cumulative incidence): Significant reduction
  non-vertebral fractures (NVF), reduction versus placebo (Kaplan-Meier estimated cumulative incidence): Significant reduction
[3]; overweight patients
  delay compared with the abaloparatide group to achieve the same level of BMD increase at total hip and femoral neck: about 6 months
[3]; [11]
  BMD increase as compared to placebo: significantly greater BMD increase
[4]; in vivo
  Creatine renal clearance increased, (%): (4.6) %
  Arthralgia, (%): (7.1) %
  Back pain, (%): (7.5) %
  Discontinuations, (%): (7.5) %
  Dizziness, (%): (8.2) %
  Headache, (%): (6.8) %
  Hypercalciuria, (%): (9.3) %
  Hypertension, (%): (6.4) %
  Nasopharyngitis, (%): (5.3) %
  Nausea, (%): (3.9) %
  Pain in extremity, (%): (3.6) %
  Serious TEAEs, (%): (13.9) %
  ≥1 TEAE, (%): (89.3) %
[4]; [12]
  Deaths, (%): (0.4) %
  Influenza, (%): (3.9) %
  Upper respiratory tract infection, (%): (9.6) %
  Urinary tract infection, (%): (6.8) %

## abaloparatide
[1]
  new vertebral fractures, reduction vs. placebo: statistically significant reduction; also recorded: significant risk reduction
  relative risk reduction of new vertebral fractures versus placebo: 81%
[2]; [10]
  clinical fractures, reduction versus placebo: statistically significant reduction; also recorded: numerical reduction
  major osteoporotic fractures (MOF), reduction versus placebo (Kaplan-Meier estimated cumulative incidence): statistically significant reduction; also recorded: significant risk reduction
  non-vertebral fractures (NVF), reduction versus placebo (Kaplan-Meier estimated cumulative incidence): statistically significant reduction; also recorded: significant risk reduction
  wrist fracture, reduction versus placebo: numerical reduction
[2]; overweight population, all categories
  effect on NVF, clinical fractures, MOF and wrist fractures compared with teriparatide: significantly better than teriparatide
[2]; postmenopausal overweight women
  risk of major osteoporotic fracture and any clinical fracture, irrespective of baseline fracture probability (FRAX): significantly decrease
[3]; at 6 months and 12 months
  lumbar spine BMD versus placebo: statistically significant increase
[3]; at 18 months
  lumbar spine BMD: non-statistically significant BMD increase
[3]; [11]
  BMD increase at total hip as compared to teriparatide: significantly greater BMD increase
  BMD increase as compared to placebo: significant improvements
[3]; overweight patients, 6 months
  BMD increase for lumbar spine as compared to teriparatide: significantly greater BMD increase
[3]; overweight patients, 12 and 18 months
  BMD increase at the femoral neck as compared to teriparatide: significantly greater BMD increase
[3]; overweight patients, 6, 12 and 18 months, listed as abaloparatide
  BMD increase as compared to placebo: significantly greater BMD increase
[3]; treated for 18 months
  BMD in total hip and femoral neck versus teriparatide or placebo: significant BMD increase
[4]; in vivo
  Creatine renal clearance increased, (%): (5.7) %
  Arthralgia, (%): (9.2) %
  Back pain, (%): (8.0) %
  Discontinuations, (%): (5.7) %
  Dizziness, (%): (11.1) %
  Urinary tract infection, (%): (6.9) %
  ≥1 TEAE, (%): (91.6) %
[4]; [12]
  Deaths, (%): (0.8) %
  Headache, (%): (5.0) %
  Hypercalciuria, (%): (9.5) %
  Hypertension, (%): (9.5) %
  Influenza, (%): (6.1) %
  Nasopharyngitis, (%): (5.0) %
  Nausea, (%): (6.1) %
  Pain in extremity, (%): (6.9) %
  Serious TEAEs, (%): (13.7) %
  Upper respiratory tract infection, (%): (8.8) %
[5]; at 18 months
  CTX marker (bone resorption): quick return to the baseline
[5]; human, in vivo
  bone formation marker PINP: earlier increase
[6]; daily dose of 20 μg, 40 μg or 80 μg for 12 weeks to 24 weeks
  trabecular bone score (TBS): significantly increase TBS
[6]; human, in vivo
  trabecular bone score (TBS): significant increase
[7]
  fracture risk versus placebo for 18 months followed by similar anti-resorptive therapy: significant reduction
[8]
  bone loss: complete reversal of bone loss
[9]
  bone loss: complete reversal of bone loss
